Each compound was assayed on NLRP3 inflammasome (assay: IL-1β Secretion Assay (NLRP3-dependent IL-1β secretion in PMA-differentiated THP-1 cells, nigericin activation, HTRF)). Conditions: Homo sapiens, THP-1, THP-1 cells, 100 ng/mL PMA 24 h, compound 20 h, 2.5 μM Nigericin 3 h; read-out: IC50 IL-1β Inhibition.
Type: cell-based
Protocol: Cells were washed 1× with 100 ul PBS and replaced with fresh RPMI+5% FBS. Compounds were serial diluted in DMSO with 3 fold dilution for a total of 7 concentrations.
Compounds, once produced and prepared according to the present invention, can be assessed in variety of assays to characterize their activities. […] IC50 values of IL1β inhibition were calculated from the plot of percentage of inhibition versus the inhibitor concentration by a logistics fit. TABLE I depict examples of compounds according to generic Formulae I. Data which is <1 nM is listed as *****; data 1-10 nM is listed as ****; data 10-100 nM is listed as ***, data 100-300 nM is listed as **, data >300 nM is listed as *.

SMILES | IC50 [nM]
CN1CCC[C@@H](Nc2nnc(-c3ccc(C(F)(F)F)cc3O)c3cnn(C)c23)C1 [Compound I-146, 2-[1-Methyl-7-[[(3R)-1-methyl-3-piperidyl]amino]pyrazolo[3,4-d]pyridazin-4-yl]-5-(trifluoromethyl)phenol] | < 1
C[C@@H]1COCCN1CCNc1nnc(-c2ccc(C(F)(F)F)cc2O)c2ccccc12 [Compound I-147] | 10 to 100
C[C@H]1COCCN1CCNc1nnc(-c2ccc(C(F)(F)F)cc2O)c2ccccc12 [Compound I-148] | 10 to 100
Oc1cc(C(F)(F)F)ccc1-c1nnc(NCC2CCN2)c2ccccc12 (centres unmarked) [Compound I-150] | 10 to 100
CN1C[C@H](F)C[C@@H](Nc2nnc(-c3ccc(C(F)(F)F)cc3O)c3ccccc23)C1 [Compound I-151] | < 1
CN(C)C1CCCN(c2nnc(-c3ccc(C(F)(F)F)cc3O)c3cnccc23)C1 (centres unmarked) [Compound I-152] | 1 to 10
COc1cc(C(F)(F)F)ccc1-c1nnc(N2CCNCC2)c2ccncc12 [Compound I-153] | 10 to 100
CN1CCC[C@@H](Nc2nnc(-c3ccc(C(F)(F)F)cc3O)c3c2N(C)CCC3)C1 [Compound I-154] | 1 to 10
CN1CCC[C@H](Nc2nnc(-c3ccc(Cl)cc3O)c3c2N(C)CCC3)C1 [Compound I-155] | 1 to 10
CN1CCC[C@@H](Nc2nnc(-c3ccc(C(F)(F)F)cc3S(N)(=O)=O)c3ccncc23)C1 [Compound I-156, (R)-2-(4-((1-methylpiperidin-3-yl)amino)pyrido[3,4-d]pyridazin-1-yl)-5-(trifluoromethyl)benzene-sulfonamide] | 100 to 300
CN1CCC[C@@H](Nc2nnc(-c3ccc(Cl)cc3C#N)c3ccncc23)C1 [Compound I-157] | 1 to 10
CN1CCC[C@@H](Nc2nnc(-c3ccc(C4CC4)cc3C(F)(F)F)c3ccncc23)C1 [Compound I-158] | < 1
Cc1cncc(-c2nnc(N[C@@H]3CCCN(C)C3)c3ccccc23)c1O [Compound I-159] | 100 to 300
COc1nc(C)ccc1-c1nnc(N[C@@H]2CCCN(C)C2)c2ccccc12 [Compound I-160] | 100 to 300
CN1CCN(CCNc2nnc(-c3ccc(C(F)(F)F)cc3O)c3ccccc23)CC1 [Compound I-161] | 10 to 100
COc1cc(C(F)(F)F)ccc1-c1nnc(N2CCCC(N(C)C)C2)c2ccncc12 (centres unmarked) [Compound I-162] | 10 to 100
CN1CCC[C@@H](Nc2nnc(-c3ccc(Cl)c(N)c3O)c3ccccc23)C1 [Compound I-163, (R)-2-Amino-3-chloro-6-(4-((1-methylpiperidin-3-yl)amino)phthalazin-1-yl)phenol] | 10 to 100
CN1C[C@@H](F)C[C@H](Nc2nnc(-c3ccc(C(F)(F)F)cc3O)c3ccccc23)C1 [Compound I-164] | 10 to 100
Cc1ccc(-c2nnc(N[C@@H]3CCCN(C)C3)c3ccccc23)c(F)c1F [Compound I-165] | 10 to 100
CN1CCC[C@@H](Nc2nnc(-c3ccc(C(F)(F)F)cc3)c3ccncc23)C1 [Compound I-166] | 1 to 10
CN1CCC[C@@H](Nc2nnc(-c3ccc(C#N)cc3OC(F)F)c3ccncc23)C1 [Compound I-167] | 10 to 100

SMILES | IC50 [nM]
Cc1cccc(-c2nnc(N[C@@H]3CCCN(C)C3)c3cnccc23)c1OC(F)F [Compound I-168] | 10 to 100
CNS(=O)(=O)c1cc(C(F)(F)F)ccc1-c1nnc(N[C@@H]2CCCN(C)C2)c2cnccc12 [Compound I-169] | 10 to 100
CN1CCC[C@@H](Nc2nnc(-c3c(O)cc(Cl)cc3F)c3ccncc23)C1 [Compound I-170] | < 1
COc1ccc(-c2nnc(N[C@@H]3CCCN(C)C3)c3cnccc23)c(OC(F)F)c1 [Compound I-171] | < 1
CN1CCC[C@@H](Nc2nnc(-c3ncc(Cl)cc3O)c3ccncc23)C1 [Compound I-172] | 1 to 10
COCOc1cc(-c2ncco2)ccc1-c1nnc(N[C@H]2CCCN(C)C2)c2cnccc12 [Compound I-173] | 10 to 100
Cn1cc(CNc2nnc(-c3ccc(C(F)(F)F)cc3O)c3ccncc23)cn1 [Compound I-174] | 10 to 100
COc1ccc(-c2nnc(N[C@@H]3CCCN(C)C3)c3cnccc23)c(O)c1 [Compound I-175] | < 1
CN1CCC[C@H](Nc2nnc(-c3ccc(-c4ncco4)cc3O)c3ccncc23)C1 [Compound I-176] | 1 to 10
CN1CCC[C@@H](Nc2nnc(-c3ccc(C(F)(F)F)cc3C(F)(F)F)c3ccncc23)C1 [Compound I-177] | 1 to 10
Cc1cc(OC(F)F)c(-c2nnc(N[C@@H]3CCCN(C)C3)c3cnccc23)cc1F [Compound I-178] | 1 to 10
Cc1cc(O)c(-c2nnc(N[C@@H]3CCCN(C)C3)c3cnccc23)c(F)c1 [Compound I-179] | < 1
Cn1cc(Nc2nnc(-c3ccc(C(F)(F)F)cc3O)c3ccncc23)cn1 [Compound I-180] | 1 to 10
COc1ccc(-c2nnc(N[C@@H]3CCCN(C)C3)c3cnccc23)c(C(F)(F)F)c1 [Compound I-181] | 1 to 10
CN1CCC[C@@H](Nc2nnc(-c3ccc(C(F)(F)F)cc3C(N)=O)c3ccncc23)C1 [Compound I-182] | 10 to 100
CN1CCCCC(Nc2nnc(-c3ccc(C(F)(F)F)cc3O)c3cnccc23)C1 (centres unmarked) [Compound I-185] | 10 to 100
CN1CCCC[C@H](Nc2nnc(-c3ccc(C(F)(F)F)cc3O)c3ccncc23)C1 [Compound I-186] | 10 to 100
CN1CCCC[C@@H](Nc2nnc(-c3ccc(C(F)(F)F)cc3O)c3ccncc23)C1 [Compound I-187] | < 1
CN1CCC[C@@H](Nc2nnc(-c3ccc(C(F)(F)F)cc3OC3COC3)c3cnccc23)C1 [Compound I-188] | 10 to 100
CN1CCC[C@@H](Nc2nnc(-c3ccc(C(F)(F)F)cc3-c3cnn(C)c3)c3cnccc23)C1 [Compound I-189] | 10 to 100
CN1CCC[C@@H](Nc2nnc(-c3ccc(C(F)(F)F)cc3CO)c3ccncc23)C1 [Compound I-190] | 10 to 100

SMILES | IC50 [nM]
CN1CCC[C@@H](Nc2nnc(-c3ccc(OC(F)(F)F)cc3OC(F)F)c3ccncc23)C1 [Compound I-191] | 1 to 10
CN1CCC[C@@H](Nc2nnc(-c3ccc(C(F)(F)F)cc3S(C)(=O)=O)c3ccncc23)C1 [Compound I-192] | 10 to 100
CN1CCC[C@@H](Nc2nnc(-c3ccc(C(F)(F)F)cc3-c3cn[nH]c3)c3ccncc23)C1 [Compound I-193] | 10 to 100
CN1CCC[C@@H](Nc2nnc(-c3ccc(C(F)(F)F)cc3C3CC3)c3ccncc23)C1 [Compound I-194, (R)-1-(2-Cyclopropyl-4-(trifluoromethyl)phenyl)-N-(1-methylpiperidin-3-yl)pyrido[3,4-d]pyridazin-4-amine] | 1 to 10
Cc1cnc(-c2nnc(N[C@@H]3CCCN(C)C3)c3cnccc23)c(O)c1 [Compound I-195] | 1 to 10
CN1CCC[C@@H](Nc2nnc(-c3c(O)cc(C4CC4)cc3F)c3ccncc23)C1 [Compound I-196] | < 1
CN1CCC[C@@H](Nc2nnc(-c3c(O)cc(C(F)(F)F)cc3F)c3ccncc23)C1 [Compound I-197] | < 1
Cc1cc(Cl)cc(F)c1-c1nnc(N[C@@H]2CCCN(C)C2)c2cnccc12 [Compound I-198] | 10 to 100
COc1cc(C(F)(F)F)ccc1-c1nnc(N[C@H]2CN3CCC2CC3)c2cnccc12 [Compound I-199] | 10 to 100
CN1CCC[C@@H](Nc2nnc(-c3ccc(-c4ncccn4)cc3O)c3ccncc23)C1 [Compound I-200] | 1 to 10
COc1cc(C(F)(F)F)ccc1-c1nnc(N2CCC(N(C)C)CC2)c2cnccc12 [Compound I-201] | 10 to 100
CN1CCC[C@@H](Nc2nnc(-c3ccc(C(F)(F)F)cc3-c3ccccc3)c3ccncc23)C1 [Compound I-202] | 10 to 100
CN(C)CC1CCN(c2nnc(-c3ccc(C(F)(F)F)cc3O)c3ccccc23)C1 (centres unmarked) [Compound I-203] | 10 to 100
Cc1cc(C)c(-c2nnc(N[C@@H]3CCCN(C)C3)c3cnccc23)c(C)c1 [Compound I-205] | 1 to 10
OCCN1CCC[C@@H](Nc2nnc(-c3ccc(C(F)(F)F)cc3OC(F)F)c3ccncc23)C1 [Compound I-206, 2-[(3R)-3-[[1-[2-(Difluoromethoxy)-4-(trifluoromethyl)phenyl]pyrido[3,4-d]pyridazin-4-yl]amino]-1-piperidyl]ethanol] | < 1
CC(C)c1ccc(-c2nnc(N[C@@H]3CCCN(C)C3)c3cnccc23)c(C(C)C)c1 [Compound I-207] | 1 to 10
COc1c(C2CC2)ccc(F)c1-c1nnc(N[C@@H]2CCCN(C)C2)c2cnccc12 [Compound I-208] | 10 to 100
CN1CCC[C@@H](Nc2nnc(-c3c(F)ccc(C4CC4)c3O)c3ccncc23)C1 [Compound I-210] | 10 to 100
CN1CCC(Nc2nnc(-c3ccc(C(F)(F)F)cc3O)c3ccncc23)CC12CC2 (centres unmarked) [Compound I-212] | 10 to 100
COc1cc(C(F)(F)F)ccc1-c1nnc(NC2CC3CCC(C3)N2C)c2cnccc12 (centres unmarked) [Compound I-213] | 100 to 300
CN1CCC[C@@H](Nc2nnc(-c3ccc(C(F)(F)F)cc3CC(F)(F)F)c3ccncc23)C1 [Compound I-214, (R)—N-(1-Methylpiperidin-3-yl)-1-(2-(2,2,2-trifluoroethyl)-4-(trifluoromethyl)-phenyl)pyrido[3,4-d]pyridazin-4-amine] | < 1

Same assay, conditions: THP-1 cells, 100 ng/mL PMA 24 h, compound 20 h, 2.5 μM Nigericin 3 h; read-out: IC50 IL-1β Inhibition

SMILES | IC50 [nM]
CN1CCC[C@@H](Nc2nnc(-c3c(F)ccc(Cl)c3O)c3ccncc23)C1 [Compound I-209] | 1 to 10
CN1CCC[C@@H](Nc2nnc(-c3c(F)ccc(Cl)c3O)c3ccncc23)C1 [Compound I-211] | 10 to 100
